We go through 99 molecules from PubChem BioAssay AID493102 (Broad Institute, 2011).

The test system of the test is SK-MEL-5 TRPM1-promoter luciferase reporter, 24 h. In words: TRPM1 promoter luciferase signal decrease, dose response, MITF inhibitor project, cell-based, SK-MEL-5, cherry-picked, set 4 (AID 493102).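 Further: actives lower the luciferase signal so the potency reflects inhibition of reporter expression.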
Usually AC50 stands for the concentration giving half of the maximal activity seen. Turning to `CC1=CC2/C=C(\C)CCC(O)C(O)/C=C/C(=O)C23C(=O)NC(CC(C)C)C3C1C` (centres undefined), the AC50 is 6.58 µM. The value for `CCC(=O)Nc1cc2nn(-c3ccc(C)cc3)nc2cc1C` was 4.15 µM; that for `S=C=Nc1cccc(C2(N3CCCCC3)CCCCC2)c1` was 7.36 µM.

In the case of `Cc1c(Cl)c([N+](=O)[O-])nn1Cc1ccc(C(=O)N/N=C\c2cc(Cl)ccc2O)o1`, the concentration at half-maximal activity (AC50) was 3.47 µM. The value for `Nc1ccc(-c2nc3ccc(C(=O)O)cc3s2)cc1` was 0.866 µM; that for `CCCNC(=O)COC(=O)c1ccccc1C(=O)c1ccc(Cl)c([N+](=O)[O-])c1` was 8.34 µM. With `CCOc1ccc2nc(NC3=NC(c4ccc(OC)cc4)CC(=O)N3)nc(C)c2c1` (centres undefined) the figure was 9.49 µM; with `COc1ccc(C(=O)NC(=O)Nc2cc(C)ccn2)cc1`, 4.96 µM; with `CCCOCc1ccc(O)c2ncccc12`, 15.5 µM.

For the molecule `Cc1cc(C(=O)COc2cccnc2[N+](=O)[O-])c(C)n1-c1ccccc1`, the AC50 is 1.48 µM.

Consider `Cc1ccccc1C(=O)N1CCN(c2ccc(NC(=O)c3ccc([N+](=O)[O-])o3)cc2)CC1`, for which the half-maximal activity concentration (AC50) is 6.2 µM. With `CC1CCN(CC(CS(=O)(=O)c2ccc([N+](=O)[O-])cc2)N2CCC(C)CC2)CC1` (centres undefined) the figure was 6.62 µM. The value for `Cc1cnc(NC(=O)c2nn(C)cc2[N+](=O)[O-])s1` was 20.6 µM; that for `CC(C)N=C(NS(=O)(=O)c1ccccc1)C(Cl)(Cl)Cl` was 6.76 µM; that for `CCN(CC)S(=O)(=O)c1ccc(N2CCCC2)c(NC(=O)c2ccc([N+](=O)[O-])o2)c1` was 3.18 µM. For the molecule `Cc1ccccc1-c1nc(-c2ccccn2)no1`, the concentration at half-maximal activity (AC50) was 4.18 µM. Consider `COc1ccc(C(=O)/C(C#N)=N/Nc2ccc([N+](=O)[O-])cc2)cc1`, for which the AC50 was 8.26 µM. The value for `CCCc1ccc(-c2ccc(/C=C/C(=O)O)cc2)nc1` was 0.039 µM; that for `CC(C)N1C(=O)/C(=C/C=C/c2ccco2)C(=O)N(Cc2ccco2)C1=O` was 9.97 µM; that for `Cc1cc(C)c2c(N)c3cccc(C)c3nc2n1` was 3.21 µM. As to `O=C(CCl)Nc1cccc(Oc2ccccc2)c1`, the concentration at half-maximal activity (AC50) is 8.07 µM. The value for `Cc1ccc2c(C(=O)CCl)c(C)[nH]c2c1` was 8.17 µM; that for `CCCOc1ccc(C(=O)C(CN2CCCC2)c2ccccc2)cc1` (centres undefined) was 8.62 µM. The value for `O=c1c(Cl)c(Cl)cnn1-c1ccccc1` was 9.54 µM; that for `Cc1ccc(OCC(=O)N/N=C/c2ccc([N+](=O)[O-])o2)cc1` was 8.9 µM.

`O=C(N/N=C/c1ccc([N+](=O)[O-])o1)c1ccc(O)cc1`: the AC50 is 5.2 µM.

Regarding `C=CCn1c(C)cc(C2=NNC(=NC(C)(C)C)SC2)c1C`, the half-maximal activity concentration (AC50) is 4.09 µM. With `O=[N+]([O-])c1ccc(/C=N/n2cnc3ccccc32)s1` the figure was 6.25 µM; with `NC(=O)c1cc([N+](=O)[O-])ccc1NCc1ccc(N)cc1`, 1.41 µM; with `CC(=O)Nc1ccc(S(=O)(=O)NC2=C(N3CCN(C)CC3)C(=O)c3ccccc3C2=O)cc1`, 3.65 µM. The value for `CC1(C(=O)N/N=C/c2ccc([N+](=O)[O-])o2)CC1(Br)Br` (centres undefined) was 10.3 µM; that for `COc1ccc(NS(=O)(=O)c2cc(NC(=O)CNC(=O)c3cccc(OC)c3)ccc2C)cc1` was 11 µM; that for `O=c1nc(N/N=C/c2ccccn2)cn[nH]1` was 4.65 µM.

In the case of `COc1cc(CNC2CCCC2)cc(Cl)c1OCc1ccccc1Cl`, the concentration at half-maximal activity (AC50) was 17.7 µM. The value for `COC(=O)c1ccc2c(c1O)C(=O)c1ccccc1C2=O` was 1.61 µM; that for `O=C(Nc1ccc(-c2nc3ncccc3o2)cc1)c1ccc([N+](=O)[O-])o1` was 3.63 µM. With `CC(=O)c1ccc(S(=O)(=O)N2CCN(C(=O)/C=C/c3ccc4ccccc4n3)CC2)cc1` the figure was 12 µM; with `O=C(O)c1ccc(N/N=C/c2ccc(OC(=O)c3cccc(Cl)c3)cc2)cc1`, 3.21 µM. With `CCC(=O)N1CCN(c2ccc(NC(=O)c3ccc([N+](=O)[O-])o3)cc2Cl)CC1` the figure was 6.08 µM; with `O=C(CNC(=O)c1ccccc1)N/N=C/c1ccc([N+](=O)[O-])s1`, 5.34 µM. Take `Cc1cc(-n2c(SCC(=O)NCCC3=CCCCC3)nc3n[nH]c(C)c3c2=N)ccc1Cl`: the AC50 was 17.1 µM. With `COc1ccc(S(=O)(=O)N2CCCCC2)cc1NC(=O)c1ccc([N+](=O)[O-])o1` the figure was 9.14 µM; with `CCOC(=O)CSC1=NC(=O)/C(=C/c2ccc(OC)cc2)S1`, 3.98 µM. The value for `Cc1ccc(C(=O)N/C(=C\c2ccc(-c3ccccc3[N+](=O)[O-])o2)C(=O)NCCN(C)C)cc1` was 4.87 µM; that for `CC1CCC(C(C)C)C(OC(=O)Cn2c(-c3ccc(Cl)cc3)[n+](C)c3ccccc32)C1` (centres undefined) was 6.29 µM; that for `COc1cccc(CNCCc2c[nH]c3ccccc23)c1OCc1ccccc1` was 14.4 µM. On to `Cc1nc2ccccc2n1/N=C/c1ccc([N+](=O)[O-])s1`, for which the AC50 was 3.51 µM. The value for `CN(Cc1ccccc1)C1=CC(=[N+]2CCCC2)CC(C)(C)C1` was 1.55 µM; that for `CCOC(=O)c1c(C)oc2c1C(=O)c1ccccc1C2=O` was 3.18 µM; that for `Cc1c(C#N)c(NC(=O)CCl)n(Cc2cccs2)c1C` was 7.06 µM.

`N=c1n(CC(=O)c2ccc(Br)s2)c2ccccc2n1Cc1ccccc1`: the AC50 was 7.34 µM. With `O=C1NC(=S)NC(=O)C1=Cc1cccn1-c1ccc(O)cc1` the figure was 11.4 µM; with `O=C(Nc1cc(-c2nc3ncccc3o2)ccc1Cl)c1ccc([N+](=O)[O-])o1`, 5.76 µM; with `CCN1CCN(CCCNC(=O)c2ccc3c(c2)NC(=O)/C(=C\c2cccc(C)c2)S3)CC1`, 9.93 µM. With `CC1CCCC(NC(=O)NC(=O)CCl)C1C` (centres undefined) the figure was 12.4 µM. The value for `CC(NC(=O)c1ccc([N+](=O)[O-])o1)C12CC3CC(CC(C3)C1)C2` (centres undefined) was 15.1 µM; that for `CCCCNC(=O)Nc1ccc(C2SCCS2)cc1` was 35.3 µM. On to `O=C(NC1=C(Nc2ccc(Cl)cc2)C(=O)c2ccccc2C1=O)c1ccccc1`, for which the AC50 was 0.93 µM. In the case of `Cc1ccc(NC(=O)CCl)cc1S(=O)(=O)N1CCCCCC1`, the AC50 is 7.55 µM.

In the case of `COc1cccc(C(=O)Nc2ccc3c(cc2=O)[C@@H](NC(C)=O)CCc2cc(OC)c(OC)c(OC)c2-3)c1`, the AC50 is 8.43 µM. The value for `Cc1nc(NC(=O)/C=C/c2ccccc2)n[nH]1` was 17.8 µM. With `COc1ccc(N(C(=O)CCl)C(C(=O)NC2CCCCC2)c2cccnc2)cc1` (centres undefined) the figure was 5.87 µM. `O=C(Cn1ncc(Cl)c(Cl)c1=O)c1ccc(Cl)cc1`: the AC50 is 8.81 µM. With `C=CCN1C(=O)NC(=O)/C(=C/C=C/c2ccccc2)C1=O` the figure was 5.94 µM; with `Cc1ccc(-n2[nH]c(=O)c(-c3ccccn3)c2C)cc1`, 3.23 µM. With `Cc1cc(NC(=O)c2ccc([N+](=O)[O-])o2)ccc1NC(=O)c1ccco1` the figure was 7.8 µM; with `Cc1ccc(NC(=O)CN(C)C(=O)Cn2ncc(Cl)c(Cl)c2=O)cc1`, 9.16 µM. The value for `COc1cc2c(cc1OC)C(SC)=NC1(CCCC1)C2` was 9.44 µM; that for `COc1cc2c(cc1/C=C/[N+](=O)[O-])OCO2` was 8.98 µM; that for `O=C1c2cc(F)ccc2-n2c1nc1ccccc1c2=O` was 1.05 µM. Consider `Cc1cc(C(C)(C)C)cc(C)c1Cn1c2[n+](c3ccc(C(F)(F)F)cc31)CCCCC2`, for which the AC50 is 7.55 µM. With `O=C(O)c1ccc(N/N=C/c2ccc3nccnc3c2)cc1` the figure was 0.696 µM. With `COc1cc(C2C(C#N)=C(N)Oc3cc(N(C)C)ccc32)cc2c1OCO2` (centres undefined) the figure was 0.601 µM.

Consider `COc1ccccc1CNCC(O)Cn1c2ccccc2c2ccccc21` (centres undefined), for which the AC50 was 18.7 µM. With `O=c1c(Cl)c(Cl)cnn1Cc1ccc(F)cc1` the figure was 8.9 µM; with `Cn1c(/C=C/c2cccc([N+](=O)[O-])c2)c([N+](=O)[O-])c(=O)n(C)c1=O`, 27.8 µM. In the case of `COc1ccc(C)cc1Nc1nc(N)c2cc(OC)c(OC)cc2n1`, the AC50 was 14.2 µM.

In the case of `CCn1c(/C=C/N(C)c2ccccc2)[n+](CC)c2ccc(Cl)cc21`, the AC50 is 6.86 µM. The value for `Clc1ccc(-c2c[n+](Cc3cccc(Cl)c3)c3n2CCC3)cc1` was 8.77 µM; that for `COc1ccc(-n2c(C)cc(C(=O)CCl)c2C)cc1` was 6.44 µM. With `CC(=NNC(=S)N1CCN(c2ccccn2)CC1)c1nccs1` the figure was 0.681 µM; with `COCCn1c(C)cc(C(=O)COC(=O)c2ccccc2Br)c1C`, 1.14 µM; with `CCOC(=O)c1ccc(NC2=CC(=O)C(=O)c3ccccc32)cc1`, 4.3 µM.

With `COc1cc(NC(=O)COc2ccccc2[N+](=O)[O-])ccc1NC(=O)c1cccs1`, the AC50 was 10.1 µM. With `O=C(c1nnsc1S(=O)(=O)c1ccc(Cl)cc1)N1CCOCC1` the figure was 9.51 µM; with `CC1(C)Cc2ccccc2C2=NNC(=O)C2=N1`, 3.62 µM; with `COC(=O)c1ccc(Nc2cc(C)nc3ccc(C)cc23)cc1`, 6.85 µM. With `Cc1ccc(NC(=O)Cn2ncc(Cl)c(Cl)c2=O)cc1S(=O)(=O)N1CCCCC1` the figure was 13.7 µM; with `CC(C)[C@H](NC(=O)OC(C)(C)C)c1nnc(S(=O)(=O)Cc2c(F)cccc2Cl)o1`, 11.6 µM.

Take `Cc1c(C#N)c(NC(=O)CCl)n(Cc2ccccc2)c1C`: the AC50 is 11.2 µM. With `C1CCC(C(CC2CCCCN2)C2CCCCC2)CC1` (centres undefined) the figure was 18.8 µM.

With `CC(C)(C)C(=O)Nc1cc2nn(-c3ccccc3)nc2cc1Cl`, the AC50 was 0.495 µM.

On to `Cc1ccc(C(=O)N/C(=C\c2ccc(-c3ccccc3[N+](=O)[O-])o2)C(=O)NCCCN(C)C)cc1`, for which the half-maximal activity concentration (AC50) was 3.28 µM.

For the molecule `Cc1cc(C)cc(OCC(=O)N/N=C/c2ccc([N+](=O)[O-])o2)c1`, the AC50 was 7.12 µM. With `Cc1ccc(NC(=O)/C=C/c2ccc([N+](=O)[O-])s2)c(C)c1` the figure was 4.64 µM; with `N=c1n(Cc2ccc(Cl)cc2)c2ccccc2n1CC(O)COc1ccccc1` (centres undefined), 9.25 µM. For the molecule `COc1ccc(/C=C2\SC(=O)N(CCCC(=O)Nc3cc(Cl)ccc3C(=O)O)C2=O)cc1`, the concentration at half-maximal activity (AC50) is 0.528 µM. The value for `CC1CCC(C(C)C)C(OC(=O)Cn2c(-c3ccccc3)[n+](C)c3ccccc32)C1` (centres undefined) was 2.37 µM; that for `O=C(COc1ccc(Cl)cc1Cl)Nc1ccccn1` was 2.19 µM.
